Measured values reported in patent publication US12692254B2, “Benzimidazole inhibitors of PAD enzymes” (BRISTOL-MYERS SQUIBB COMPANY, priority 2018, dated 2026).

target: human PAD4 (hPAD4) (Homo sapiens, UniProt Q9UM07); experiment: RFMS human PAD4 functional assay (rapid-fire mass spectrum); type: biochemical; conditions: 5 nM hPAD4 enzyme, 250 μM BAEE, 50 μM Calcium; 30 min preincubation, 90 min reaction at 37° C.
How it was run: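 PAD4 (10 nM) preincubated 30 min with compound (top final 50 μM), then BAEE substrate added in pH 7.5 HEPES buffer with DTT, 50 μM calcium, TPEN; 90 min at 37° C. After TCA quench, citrulline derivatized with phenyl glyoxal (4 mM final, 30 min, 37° C) and quantified by RapidFire MS against internal standard.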

human PAD4 (hPAD4), sequence (Q9UM07 whole entry): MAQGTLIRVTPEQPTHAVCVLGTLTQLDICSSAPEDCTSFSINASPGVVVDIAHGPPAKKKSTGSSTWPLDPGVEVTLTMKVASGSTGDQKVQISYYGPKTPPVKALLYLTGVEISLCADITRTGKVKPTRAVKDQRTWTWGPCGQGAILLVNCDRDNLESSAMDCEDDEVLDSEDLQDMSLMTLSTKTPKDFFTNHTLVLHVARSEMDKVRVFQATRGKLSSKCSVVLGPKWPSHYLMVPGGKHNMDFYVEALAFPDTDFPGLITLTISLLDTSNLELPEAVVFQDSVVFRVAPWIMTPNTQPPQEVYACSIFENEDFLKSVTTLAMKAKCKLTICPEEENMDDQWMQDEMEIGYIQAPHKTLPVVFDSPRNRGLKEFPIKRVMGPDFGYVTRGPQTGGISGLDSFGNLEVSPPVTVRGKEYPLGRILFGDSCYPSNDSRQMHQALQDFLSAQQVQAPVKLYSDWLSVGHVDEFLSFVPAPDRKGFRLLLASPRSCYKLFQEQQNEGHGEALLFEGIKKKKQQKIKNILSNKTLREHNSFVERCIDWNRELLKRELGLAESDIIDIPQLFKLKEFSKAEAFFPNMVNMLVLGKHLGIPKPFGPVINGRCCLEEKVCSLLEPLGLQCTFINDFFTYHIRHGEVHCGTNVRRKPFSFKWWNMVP

Point of comparison: `COc1cc(C(=O)N2C[C@H]3CC[C@@H]2[C@@H]3N)cc2nc(-c3cc4cccnc4n3CC3CC3)n(C3CN(C(=O)c4ccnc(N)n4)C3)c12` [Example 101, (1R,4R,7R)-2-{1-[1-(2-aminopyrimidine-4-carbonyl)azetidin-3-yl]-2-[1-(cyclopropylmethyl)-1H-pyrrolo[2,3-b]pyridin-2-yl]-7-methoxy-1H-1,3-benzodiazole-5-carbonyl}-2-azabicyclo[2.2.1]heptan-7-amine], IC50 125 nM. Against it:
- COc1cc(C(=O)N2C[C@H]3CC[C@@H]2[C@@H]3N)cc2nc(-c3cc4cccnc4n3CC3CC3)n(CC3CN(C(=O)c4ccccc4)C3)c12 [Example 88, (1R,4R,7R)-2-{1-[(1-benzoylazetidin-3-yl)methyl]-2-[1-(cyclopropylmethyl)-1H-pyrrolo[2,3-b]pyridin-2-yl]-7-methoxy-1H-1,3-benzodiazole-5-carbonyl}-2-azabicyclo[2.2.1]heptan-7-amine] — 6-fold lower, 21 nM
- N[C@@H]1[C@@H]2CC[C@H]1N(C(=O)c1cc(Cl)c3c(c1)nc(-c1cc4cccnc4n1CC1CC1)n3CC1CN(C(=O)c3ccccc3)C1)C2 [Example 89, (3-((5-((1R,4R,7R)-7-amino-2-azabicyclo[2.2.1]heptane-2-carbonyl)-7-chloro-2-(1-(cyclopropylmethyl)-1H-pyrrolo[2,3-b]pyridin-2-yl)-1H-benzo[d]imidazol-1-yl)methyl)azetidin-1-yl)(phenyl)methanone] — 3-fold lower, 41 nM
- COc1cc(C(=O)N2C[C@H](N)C[C@@H](F)C2)cc2nc(-c3cc4ccccc4n3CC3CC3)n(CC3CN(C(=O)c4ccc(C#N)cc4)C3)c12 [Example 90, 4-[3-({5-[(3R,5R)-3-amino-5-fluoropiperidine-1-carbonyl]-2-[1-(cyclopropylmethyl)-1H-indol-2-yl]-7-methoxy-1H-1,3-benzodiazol-1-yl}methyl)azetidine-1-carbonyl]benzonitrile] — 4.5-fold lower, 28 nM
- COc1cc(C(=O)N2C[C@H]3CC[C@@H]2[C@@H]3N)cc2nc(-c3cc4ccccc4n3CC3CC3)n(CC3CN(C(=O)c4ccc(C#N)cc4)C3)c12 [Example 91, 4-[3-({5-[(1R,4R,7R)-7-amino-2-azabicyclo[2.2.1]heptane-2-carbonyl]-2-[1-(cyclopropylmethyl)-1H-indol-2-yl]-7-methoxy-1H-1,3-benzodiazol-1-yl}methyl)azetidine-1-carbonyl]benzonitrile] — 14-fold lower, 9 nM
- N#Cc1ccc(C(=O)N2CC(Cn3c(-c4cc5ccccc5n4CC4CC4)nc4cc(C(=O)N5C[C@H]6CC[C@@H]5[C@@H]6N)cc(F)c43)C2)cc1 [Example 92, 4-(3-((5-((1R,4R,7R)-7-amino-2-azabicyclo[2.2.1]heptane-2-carbonyl)-2-(1-(cyclopropylmethyl)-1H-indol-2-yl)-7-fluoro-1H-benzo[d]imidazol-1-yl)methyl)azetidine-1-carbonyl)benzonitrile] — 10-fold lower, 12 nM
- N[C@@H]1[C@@H]2CC[C@H]1N(C(=O)c1cc(Cl)c3c(c1)nc(-c1cc4ccccc4n1CC1CC1)n3CC1CN(C(=O)c3ccncc3)C1)C2 [Example 93, (3-((5-((1R,4R,7R)-7-amino-2-azabicyclo[2.2.1]heptane-2-carbonyl)-7-chloro-2-(1-(cyclopropylmethyl)-1H-indol-2-yl)-1H-benzo[d]imidazol-1-yl)methyl)azetidin-1-yl)(pyridin-4-yl)methanone] — 7.8-fold lower, 16 nM
- COc1cc(C(=O)N2C[C@H]3CC[C@@H]2[C@@H]3N)cc2nc(-c3cc4cccnc4n3CC3CC3)n(C3CN(C(=O)c4ccnc(Cl)n4)C3)c12 [Example 94, (1R,4R,7R)-2-{1-[1-(2-chloropyrimidine-4-carbonyl)azetidin-3-yl]-2-[1-(cyclopropylmethyl)-1H-pyrrolo[2,3-b]pyridin-2-yl]-7-methoxy-1H-1,3-benzodiazole-5-carbonyl}-2-azabicyclo[2.2.1]heptan-7-amine] — 3.7-fold lower, 34 nM
- N[C@@H]1[C@@H]2CC[C@H]1N(C(=O)c1cc(F)c3c(c1)nc(-c1cc4ccccc4n1CC1CC1)n3CC1CN(C(=O)c3ccncc3)C1)C2 [Example 95, (1R,4R,7R)-2-{2-[1-(cyclopropylmethyl)-1H-indol-2-yl]-7-fluoro-1-{[1-(pyridine-4-carbonyl)azetidin-3-yl]methyl}-1H-1,3-benzodiazole-5-carbonyl}-2-azabicyclo[2.2.1]heptan-7-amine] — 7.8-fold lower, 16 nM
- N#Cc1ccc(C(=O)N2CC(Cn3c(-c4cc5cccnc5n4CC4CC4)nc4cc(C(=O)N5C[C@H]6CC[C@@H]5[C@@H]6N)cc(Cl)c43)C2)cc1 [Example 96, 4-[3-({5-[(1R,4R,7R)-7-amino-2-azabicyclo[2.2.1]heptane-2-carbonyl]-7-chloro-2-[1-(cyclopropylmethyl)-1H-pyrrolo[2,3-b]pyridin-2-yl]-1H-1,3-benzodiazol-1-yl}methyl)azetidine-1-carbonyl]benzonitrile] — 1.5-fold lower, 83 nM
- COc1cc(C(=O)N2C[C@H]3CC[C@@H]2[C@@H]3N)cc2nc(-c3cc4cccnc4n3CC3CC3)n(C3CN(C(=O)c4ccnc(C)n4)C3)c12 [Example 97, (1R,4R,7R)-2-{2-[1-(cyclopropylmethyl)-1H-pyrrolo[2,3-b]pyridin-2-yl]-7-methoxy-1-[1-(2-methylpyrimidine-4-carbonyl)azetidin-3-yl]-1H-1,3-benzodiazole-5-carbonyl}-2-azabicyclo[2.2.1]heptan-7-amine] — 2-fold lower, 63 nM
- COc1cc(C(=O)N2C[C@H]3CC[C@@H]2[C@@H]3N)cc2nc(-c3cc4cccnc4n3CC3CC3)n(C3CN(C(=O)c4ccnc(Cl)c4)C3)c12 [Example 98, (1R,4R,7R)-2-{1-[1-(2-chloropyridine-4-carbonyl)azetidin-3-yl]-2-[1-(cyclopropylmethyl)-1H-pyrrolo[2,3-b]pyridin-2-yl]-7-methoxy-1H-1,3-benzodiazole-5-carbonyl}-2-azabicyclo[2.2.1]heptan-7-amine] — 1.8-fold lower, 71 nM
- COc1cc(C(=O)N2C[C@H]3CC[C@@H]2[C@@H]3N)cc2nc(-c3cc4cccnc4n3CC3CC3)n(C3CN(C(=O)c4ccc(Cl)nc4)C3)c12 [Example 99, (1R,4R,7R)-2-{1-[1-(6-chloropyridine-3-carbonyl)azetidin-3-yl]-2-[1-(cyclopropylmethyl)-1H-pyrrolo[2,3-b]pyridin-2-yl]-7-methoxy-1H-1,3-benzodiazole-5-carbonyl}-2-azabicyclo[2.2.1]heptan-7-amine] — within 1.5-fold, 111 nM
- COc1cc(C(=O)N2C[C@H]3CC[C@@H]2[C@@H]3N)cc2nc(-c3cc4cccnc4n3CC3CC3)n(C3CN(C(=O)c4ccncn4)C3)c12 [Example 100, (1R,4R,7R)-2-{2-[1-(cyclopropylmethyl)-1H-pyrrolo[2,3-b]pyridin-2-yl]-7-methoxy-1-[1-(pyrimidine-4-carbonyl)azetidin-3-yl]-1H-1,3-benzodiazole-5-carbonyl}-2-azabicyclo[2.2.1]heptan-7-amine] — within 1.5-fold, 117 nM
- COc1cc(C(=O)N2C[C@H]3CC[C@@H]2[C@@H]3N)cc2nc(-c3cc4cccnc4n3CC3CC3)n(C3CN(C(=O)c4cnc(C#N)nc4)C3)c12 [Example 102, 5-(3-{5-[(1R,4R,7R)-7-amino-2-azabicyclo[2.2.1]heptane-2-carbonyl]-2-[1-(cyclopropylmethyl)-1H-pyrrolo[2,3-b]pyridin-2-yl]-7-methoxy-1H-1,3-benzodiazol-1-yl}azetidine-1-carbonyl)pyrimidine-2-carbonitrile] — within 1.5-fold, 141 nM
